# Measured values taken from US20260137697A1, “THIAZOLO[5,4-D]PYRIMIDINE COMPOUNDS, COMPOSITIONS COMPRISING THEM AND USES THEREOF” (University de Montreal, priority 2022, published 2026).
# Tests used:
# BRAF = molecular target: T1, BRAF (Homo sapiens, UniProt P15056); experiment: BRAF kinase activity assay (ADP-Glo); assay type: biochemical; conditions: Table 3; 10 μM ATP, kinase-dead MEK1 substrate
# T1 construct: GST; purchased Millipore Sigma B4062-10UG
# How it was run: (§1)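 GST-tagged kinase (0.375 nM) with 75 nM kinase-dead MEK1 and 10 μM ATP in HEPES pH 7.5 buffer, 2 h at 30° C, nine concentrations 100–0.01 nM, 0.05% DMSO. ADP-Glo luminescence; % inhibition vs DMSO and substrate-only blanks, IC50 by four-parameter fit.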
# CRAF = molecular target: T2, CRAF (Homo sapiens, UniProt P04049); experiment: CRAF kinase activity assay (ADP-Glo); assay type: biochemical; conditions: Table 3; 10 μM ATP, kinase-dead MEK1 substrate
# T2 construct: fused on or other part: GST tag (N-terminal according to the vendor's product)
# T2 sequence (P04049 whole entry Y340E/Y341E, form open, the tested form may be a part): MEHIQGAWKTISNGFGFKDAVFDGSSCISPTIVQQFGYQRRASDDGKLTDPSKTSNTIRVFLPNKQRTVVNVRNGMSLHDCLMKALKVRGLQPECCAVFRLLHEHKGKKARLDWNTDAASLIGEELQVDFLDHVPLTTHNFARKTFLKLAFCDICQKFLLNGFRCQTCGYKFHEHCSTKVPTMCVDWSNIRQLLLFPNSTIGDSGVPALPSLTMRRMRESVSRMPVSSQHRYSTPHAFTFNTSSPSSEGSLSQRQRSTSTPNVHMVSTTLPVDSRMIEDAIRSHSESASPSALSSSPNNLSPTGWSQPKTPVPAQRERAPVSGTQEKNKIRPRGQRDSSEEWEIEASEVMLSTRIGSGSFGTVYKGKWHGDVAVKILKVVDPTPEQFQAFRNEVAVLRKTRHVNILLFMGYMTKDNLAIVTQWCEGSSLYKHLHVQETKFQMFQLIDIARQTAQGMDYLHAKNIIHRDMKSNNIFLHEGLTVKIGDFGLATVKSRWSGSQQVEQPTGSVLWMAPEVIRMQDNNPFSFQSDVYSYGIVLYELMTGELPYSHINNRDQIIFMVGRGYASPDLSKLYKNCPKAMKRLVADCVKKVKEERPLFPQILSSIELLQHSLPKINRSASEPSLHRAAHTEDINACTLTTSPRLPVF
# How it was run: as §1
# pERK, HCT116 cells = experiment: Phospho-ERK inhibition, AlphaLISA p-ERK 1/2, HCT-116; assay type: cell-based, human; conditions: Table 3; for IC50: HCT116 cells (KRAS G13D), 1 h treatment; for HCT116 pERK (Ymin %): lowest % inhibition value of the pERK IC50 curve, above −20% = no paradoxical induction
# How it was run: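 Cells in RPMI-1640 with 5% FBS plated overnight, then treated 1 h with ten-point dilutions (10 μM to 0.33 nM, 0.5% DMSO). Lysate p-ERK1/2 (Thr202/Tyr204) read by AlphaLISA SureFire Ultra; % inhibition normalised to DMSO and 1 μM trametinib background, IC50 by four-parameter fit.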
# T1 sequence (P15056 whole entry): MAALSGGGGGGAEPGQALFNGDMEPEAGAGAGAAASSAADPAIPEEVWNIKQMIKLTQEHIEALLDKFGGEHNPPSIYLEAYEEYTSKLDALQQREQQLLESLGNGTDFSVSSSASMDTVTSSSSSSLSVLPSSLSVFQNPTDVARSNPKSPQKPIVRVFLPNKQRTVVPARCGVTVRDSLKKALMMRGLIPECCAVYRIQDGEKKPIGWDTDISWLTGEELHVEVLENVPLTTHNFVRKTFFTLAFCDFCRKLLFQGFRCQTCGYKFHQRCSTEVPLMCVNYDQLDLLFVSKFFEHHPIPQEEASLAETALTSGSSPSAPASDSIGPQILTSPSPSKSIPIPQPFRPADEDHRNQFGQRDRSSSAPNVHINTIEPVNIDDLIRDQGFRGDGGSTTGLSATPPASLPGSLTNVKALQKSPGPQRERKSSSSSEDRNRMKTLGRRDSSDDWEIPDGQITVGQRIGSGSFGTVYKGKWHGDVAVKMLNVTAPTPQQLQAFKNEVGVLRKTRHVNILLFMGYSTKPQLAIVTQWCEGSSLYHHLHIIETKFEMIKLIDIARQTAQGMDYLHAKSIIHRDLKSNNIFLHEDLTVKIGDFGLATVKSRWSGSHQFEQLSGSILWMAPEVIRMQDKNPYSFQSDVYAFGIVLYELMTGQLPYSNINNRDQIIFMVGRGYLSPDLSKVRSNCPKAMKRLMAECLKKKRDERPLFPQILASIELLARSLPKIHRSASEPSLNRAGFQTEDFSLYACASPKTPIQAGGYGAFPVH
Compound,IC50 (BRAF) [µM],IC50 (CRAF) [µM],"IC50 (pERK, HCT116 cells) [µM]","HCT116 pERK (Ymin %) (pERK, HCT116 cells) [%]","IC50 (pERK, HCT116 cells; Homo sapiens, HCT-116) [µM]"
C[C@@H]1CN(S(=O)(=O)c2cn(-c3nc4c(Nc5c(F)ccc(NS(=O)(=O)c6cccc(Cl)c6Cl)c5F)ncnc4s3)c3ccccc23)C[C@H](C)N1 [Example 82],0.001 to 0.01,0.01 to 0.05,0.5 to 1,−13,–
O=S(=O)(Nc1ccc(F)c(Nc2ncnc3sc(-n4cnc5c(C6(CO)CC6)cccc54)nc23)c1F)c1cccc(Cl)c1Cl [Example 143],0.001 to 0.01,< 0.01,< 0.5,−8,–
Cc1c(F)cccc1S(=O)(=O)Nc1ccc(F)c(Nc2ncnc3sc(-n4cnc5ccccc54)nc23)c1F [Example 7],0.001 to 0.01,< 0.01,< 0.5,−5,–
COCCOc1ccc2c(ncn2-c2nc3c(Nc4c(F)ccc(NS(=O)(=O)c5cccc(Cl)c5Cl)c4F)ncnc3s2)c1F [Example 79],0.001 to 0.01,< 0.01,–,–,0.5 to 1
O=S1(=O)CCN(c2cccc3c2ncn3-c2nc3c(Nc4c(F)ccc(NS(=O)(=O)c5cccc(Cl)c5Cl)c4F)ncnc3s2)CC1 [Example 158],< 0.001,< 0.01,< 0.5,4,–
NS(=O)(=O)c1cn(-c2nc3c(Nc4c(F)ccc(NS(=O)(=O)c5cccc(Cl)c5Cl)c4F)ncnc3s2)c2ccccc12 [Example 61],0.001 to 0.01,< 0.01,< 0.5,−13,–
CC(C)(C#N)c1cccc2c1ncn2-c1nc2c(Nc3c(F)ccc(NS(=O)(=O)c4cccc(Cl)c4Cl)c3F)ncnc2s1 [Example 104],0.001 to 0.01,0.01 to 0.05,< 0.5,−10,–
O=S(=O)(Nc1ccc(F)c(Nc2ncnc3sc(-n4cnc5c(N6CCC(F)(CO)CC6)cccc54)nc23)c1F)c1cccc(Cl)c1Cl [Example 142],0.001 to 0.01,0.01 to 0.05,< 0.5,0,–
O=S(=O)(Nc1ccc(F)c(Nc2ncnc3sc(-n4cc(S(=O)(=O)N5CC(C(F)F)C5)c5ccccc54)nc23)c1F)c1cccc(Cl)c1Cl [Example 76],> 0.01,0.01 to 0.05,1 to 10,−10,–
Cc1c(Cl)cccc1S(=O)(=O)Nc1ccc(F)c(Nc2ncnc3sc(-n4cnc5c(N)cccc54)nc23)c1F [Example 5],0.001 to 0.01,< 0.01,< 0.5,−6,–
O=S(=O)(Nc1ccc(F)c(Nc2ncnc3sc(-n4cnc5c(N6CCC7(CCOC7)CC6)cccc54)nc23)c1F)c1cccc(Cl)c1Cl [Example 146],> 0.01,> 0.05,< 0.5,−12,–
Cc1c(Cl)cccc1S(=O)(=O)Nc1ccc(F)c(Nc2ncnc3sc(-n4cnc5c(-c6cccnc6)cccc54)nc23)c1F [Example 10],0.001 to 0.01,0.01 to 0.05,1 to 10,−2,–
O=C(c1cn(-c2nc3c(Nc4c(F)ccc(NS(=O)(=O)c5cccc(Cl)c5Cl)c4F)ncnc3s2)c2ccccc12)N1CC(C(F)F)C1 [Example 57],0.001 to 0.01,0.01 to 0.05,< 0.5,4,–
CCC1(O)CCN(c2cccc3c2ncn3-c2nc3c(Nc4c(F)ccc(NS(=O)(=O)c5cccc(Cl)c5Cl)c4F)ncnc3s2)CC1 [Example 149],0.001 to 0.01,0.01 to 0.05,< 0.5,16,–
CS(=O)(=O)c1cn(-c2nc3c(Nc4c(F)ccc(NS(=O)(=O)c5cccc(Cl)c5Cl)c4F)ncnc3s2)c2ccccc12 [Example 72],0.001 to 0.01,< 0.01,–,–,0.5 to 1
Cc1c(F)cccc1S(=O)(=O)Nc1ccc(F)c(Nc2ncnc3sc(-n4nc(C(=O)N5C6CCC5COC6)c5ccccc54)nc23)c1F [Example 34],> 0.01,0.01 to 0.05,1 to 10,−13,–
Cc1c(F)cccc1S(=O)(=O)Nc1ccc(F)c(Nc2ncnc3sc(-n4nc(C(=O)NCc5cccnc5)c5ccccc54)nc23)c1F [Example 24],> 0.01,0.01 to 0.05,0.5 to 1,2,–
N#CC1CCN(c2cccc3c2ncn3-c2nc3c(Nc4c(F)ccc(NS(=O)(=O)c5cccc(Cl)c5Cl)c4F)ncnc3s2)CC1 [Example 140],0.001 to 0.01,0.01 to 0.05,< 0.5,−10,–
"Cc1c(F)cccc1S(=O)(=O)Nc1ccc(F)c(Nc2ncnc3sc(-c4cncs4)nc23)c1F [Example 154, N-[2,4-difluoro-3-[(2-thiazol-5-ylthiazolo[5,4-d]pyrimidin-7-yl)amino]phenyl]-3-fluoro-2-methyl-benzenesulfonamide]",> 0.01,> 0.05,–,–,1 to 10

Compound,IC50 (BRAF) [µM],IC50 (CRAF) [µM],"IC50 (pERK, HCT116 cells) [µM]","HCT116 pERK (Ymin %) (pERK, HCT116 cells) [%]","IC50 (pERK, HCT116 cells; Homo sapiens, HCT-116) [µM]"
Cc1c(F)cccc1S(=O)(=O)Nc1ccc(F)c(Nc2ncnc3sc(-n4cnc5c(-c6cccnc6)cccc54)nc23)c1F [Example 8],0.001 to 0.01,0.01 to 0.05,–,–,0.5 to 1
CC(C)(O)C1CCCN1C(=O)c1cn(-c2nc3c(Nc4c(F)ccc(NS(=O)(=O)c5cccc(Cl)c5Cl)c4F)ncnc3s2)c2ccc(F)cc12 (stereo not shown) [Example 101],> 0.01,0.01 to 0.05,< 0.5,0,–
COC1CCN(c2cccc3c2ncn3-c2nc3c(Nc4c(F)ccc(NS(=O)(=O)c5cccc(Cl)c5Cl)c4F)ncnc3s2)CC1 [Example 139],0.001 to 0.01,0.01 to 0.05,< 0.5,−13,–
O=S(=O)(Nc1ccc(F)c(Nc2ncnc3sc(-n4cnc5c(F)cc(F)cc54)nc23)c1F)c1cccc(Cl)c1Cl [Example 71],0.001 to 0.01,< 0.01,–,–,< 0.5
O=S(=O)(Nc1ccc(F)c(Nc2ncnc3sc(-n4cnc5c(F)cc(OCCO)cc54)nc23)c1F)c1cccc(Cl)c1Cl [Example 100],0.001 to 0.01,< 0.01,–,–,< 0.5
CN1CCN(S(=O)(=O)c2cn(-c3nc4c(Nc5c(F)ccc(NS(=O)(=O)c6cccc(Cl)c6Cl)c5F)ncnc4s3)c3ccccc23)CC1 [Example 12],0.001 to 0.01,0.01 to 0.05,–,–,1 to 10
CN(Cc1ccncc1)S(=O)(=O)c1cn(-c2nc3c(Nc4c(F)ccc(NS(=O)(=O)c5cccc(Cl)c5Cl)c4F)ncnc3s2)c2ccccc12 [Example 11],0.001 to 0.01,< 0.01,1 to 10,4,–
N#CCc1cn(-c2nc3c(Nc4c(F)ccc(NS(=O)(=O)c5cccc(Cl)c5Cl)c4F)ncnc3s2)cn1 [Example 124],0.001 to 0.01,< 0.01,< 0.5,12,–
O=S(=O)(Nc1ccc(F)c(Nc2ncnc3sc(-n4cnc5c(F)cccc54)nc23)c1F)c1ccccc1Cl [Example 38],0.001 to 0.01,< 0.01,0.5 to 1,−6,–
O=S(=O)(Nc1ccc(F)c(Nc2ncnc3sc(-n4cnc5c(N6CCOC(CO)C6)cccc54)nc23)c1F)c1cccc(Cl)c1Cl (stereo not shown) [Example 141],< 0.001,< 0.01,< 0.5,2,–
O=S(=O)(Nc1ccc(F)c(Nc2ncnc3sc(-n4nnc5ccccc54)nc23)c1F)c1cccc(Cl)c1Cl [Example 21],> 0.01,0.01 to 0.05,1 to 10,−4,–
Cc1c(F)cccc1S(=O)(=O)Nc1ccc(F)c(Nc2ncnc3sc(-n4nc(C(=O)N(C)CCN(C)C)c5ccccc54)nc23)c1F [Example 39],< 0.001,< 0.01,< 0.5,−12,–
Cc1c(Cl)cccc1S(=O)(=O)Nc1ccc(F)c(Nc2ncnc3sc(-n4cnc5ccccc54)nc23)c1F [Example 6],0.001 to 0.01,< 0.01,0.5 to 1,−4,–
"O=C1CCCN1c1cn(-c2nc3c(Nc4c(F)ccc(NS(=O)(=O)c5cccc(Cl)c5Cl)c4F)ncnc3s2)c2ccccc12 [Example 110, 2,3-dichloro-N-[2,4-difluoro-3-[[2-[3-(2-oxopyrrolidin-1-yl)indol-1-yl]thiazolo[5,4-d]pyrimidin-7-yl]amino]phenyl]benzenesulfonamide]",0.001 to 0.01,0.01 to 0.05,–,–,< 0.5
O=C(c1cn(-c2nc3c(Nc4c(F)ccc(NS(=O)(=O)c5cccc(Cl)c5Cl)c4F)ncnc3s2)c2ccccc12)N1C2CCC1CN(CCO)C2 [Example 98],0.001 to 0.01,< 0.01,–,–,< 0.5
CC(C)(O)C1CN(C(=O)c2cn(-c3nc4c(Nc5c(F)ccc(NS(=O)(=O)c6cccc(Cl)c6Cl)c5F)ncnc4s3)c3ccccc23)C1 [Example 87],0.001 to 0.01,< 0.01,0.5 to 1,−8,–
CC1(O)CN(C(=O)c2cn(-c3nc4c(Nc5c(F)ccc(NS(=O)(=O)c6cccc(Cl)c6Cl)c5F)ncnc4s3)c3ccccc23)C1 [Example 94],0.001 to 0.01,< 0.01,< 0.5,−10,–
O=S(=O)(Nc1ccc(F)c(Nc2ncnc3sc(-n4cnc5ccccc54)nc23)c1F)c1ccccc1Cl [Example 37],0.001 to 0.01,< 0.01,< 0.5,−11,–
